Consider 20 compounds from ChEMBL document CHEMBL1125202 (J Med Chem, 1991).

In this assay the target is Sodium/potassium-transporting ATPase. The assay can be described thus: Inhibition of [3H]ouabain binding to Na/K ATP-ase in dog heart muscle. Type of assay: tissue-based, Canis lupus familiaris, Muscle tissue.

In general, IC50 refers to the midpoint of a concentration-inhibition curve. A low value points to inhibition by little substance. For `C[C@H](O)C1CC[C@@]2(O)[C@@H]3CC[C@H]4C[C@@H](OC[C@@H]5O[C@H](OC[C@@H]6O[C@H](O)C[C@@H](O)[C@H]6O)C[C@@H](O)[C@H]5O)CC[C@]4(C)[C@H]3CC[C@]12C` (stereo not given in full), the IC50 amounted to 0.65 µM.

In turn, `C[C@]12CCCC[C@@H]1CC[C@@H]1[C@@H]2CC[C@]2(C)[C@@H](C3=CC(=O)OC3)CC[C@@]12O` came in with an IC50 of 0.07 µM.

As to `CC(O)[C@H]1CC[C@@]2(O)[C@@H]3CC[C@H]4C[C@@H](OC[C@@H]5O[C@H](O)C[C@@H](O)[C@H]5O)CC[C@]4(C)[C@H]3CC[C@]12C` (stereo not given in full), the IC50 was determined as 0.65 µM. For the compound `CC(=O)[C@H]1CC[C@@]2(O)[C@@H]3CC[C@H]4C[C@@H](OC[C@@H]5O[C@H](OC[C@@H]6O[C@H](OC[C@@H]7O[C@H](O)C[C@@H](O)[C@H]7O)C[C@@H](O)[C@H]6O)C[C@@H](O)[C@H]5O)CC[C@]4(C)[C@H]3CC[C@]12C`, the IC50 was 1 µM. Regarding `CC(=O)[C@H]1CC[C@@]2(O)[C@@H]3CC[C@H]4C[C@@H](O)CC[C@]4(C)[C@H]3CC[C@]12C`, the IC50 was 20 µM.

As for `CC(O)[C@H]1CC[C@@]2(O)[C@@H]3CC[C@H]4CCCC[C@]4(C)[C@H]3CC[C@]12C` (stereo not given in full), the IC50 is 24 µM. On to `CC(=O)[C@H]1CC[C@@]2(O)[C@@H]3CC[C@H]4CCCC[C@]4(C)[C@H]3CC[C@]12C`, for which the IC50 was above 200 µM. With `CC(=O)C1CCC2(O)C3CCC4C[C@H](OC[C@H]5O[C@@H](O)[C@H](O)[C@H](O)[C@H]5O)CCC4(C)C3CCC12C` (stereo not given in full), the IC50 was 0.15 µM. Compound `C[C@]12CC[C@H](OC[C@H]3O[C@H](O)[C@H](O)[C@@H](O)[C@@H]3O)CC1CC[C@@H]1[C@@H]2CC[C@]2(C)[C@@H](C3=CC(=O)OC3)CC[C@@]12O` (stereo not given in full) returned an IC50 of 0.007 µM.

The compound `CC(=O)[C@H]1CC[C@@]2(O)[C@@H]3CC[C@H]4C[C@@H](OC[C@@H]5O[C@H](OC[C@@H]6O[C@H](O)C[C@@H](O)[C@H]6O)C[C@@H](O)[C@H]5O)CC[C@]4(C)[C@H]3CC[C@]12C` gave an IC50 of 0.8 µM. Compound `C[C@]12CC[C@H](OC[C@H]3O[C@H](O)[C@H](O)[C@@H](O)[C@@H]3O)CC1CC[C@@H]1[C@@H]2CC[C@]2(C)[C@H](C3=CC(=O)OC3)CC[C@@]12O` (stereo not given in full) came in with an IC50 of 0.003 µM. For `C[C@]12CC[C@H](OC[C@@H]3O[C@H](O)C[C@@H](O)[C@H]3O)C[C@@H]1CC[C@@H]1[C@@H]2CC[C@]2(C)[C@@H](C3=CC(=O)OC3)CC[C@@]12O` the value was 0.009 µM; for `CC(=O)[C@H]1CC[C@@]2(O)[C@@H]3CC[C@H]4C[C@@H](OC[C@@H]5O[C@H](O)C[C@@H](O)[C@H]5O)CC[C@]4(C)[C@H]3CC[C@]12C`, 1.3 µM; for `CC(O)C1CCC2(O)C3CCC4C[C@@H](OC[C@H]5O[C@@H](O)[C@H](O)[C@H](O)[C@H]5O)CCC4(C)C3CCC12C` (stereo not given in full), 0.4 µM. As to `CC(O)C1CCC2(O)C3CCC4C[C@H](OC[C@H]5O[C@@H](O)[C@H](O)[C@H](O)[C@H]5O)CCC4(C)C3CCC12C` (stereo not given in full), the IC50 amounted to 0.075 µM. The result for `CC(O)[C@H]1CC[C@@]2(O)[C@@H]3CC[C@H]4C[C@@H](OC[C@@H]5O[C@H](OC[C@@H]6O[C@H](OC[C@@H]7O[C@H](O)C[C@@H](O)[C@H]7O)C[C@@H](O)[C@H]6O)C[C@@H](O)[C@H]5O)CC[C@]4(C)[C@H]3CC[C@]12C` (stereo not given in full) reads 0.65 µM; that for `C[C@]12CC[C@H](OC[C@@H]3O[C@H](OC[C@@H]4O[C@H](OC[C@@H]5O[C@H](O)C[C@@H](O)[C@H]5O)C[C@@H](O)[C@H]4O)C[C@@H](O)[C@H]3O)C[C@@H]1CC[C@@H]1[C@@H]2CC[C@]2(C)[C@@H](C3=CC(=O)OC3)CC[C@@]12O`, 0.008 µM; that for `CC(=O)C1CCC2(O)C3CCC4C[C@@H](OC[C@H]5O[C@@H](O)[C@H](O)[C@H](O)[C@H]5O)CCC4(C)C3CCC12C` (stereo not given in full), 0.5 µM. For the compound `CC(O)[C@H]1CC[C@@]2(O)[C@@H]3CCC4C[C@@H](O)CC[C@]4(C)[C@H]3CC[C@]12C` (stereo not given in full), the IC50 was found to be 6.4 µM. For `C[C@]12CC[C@H](OC[C@@H]3O[C@H](OC[C@@H]4O[C@H](O)C[C@@H](O)[C@H]4O)C[C@@H](O)[C@H]3O)C[C@@H]1CC[C@@H]1[C@@H]2CC[C@]2(C)[C@@H](C3=CC(=O)OC3)CC[C@@]12O`, the IC50 worked out at 0.008 µM.
